Assay results from patent US20260159533A1, “INHIBITORS OF COMPLEMENT FACTORS AND USES THEREOF” (Annexon, Inc., priority 2022, published 2026).
Structures can show the parent of a compound that is named as a salt.

Biological target: T1, human C1s protein (Homo sapiens, UniProt P09871)
T1 construct: purchased R&D Systems or Complement Technologies 2060-SE or A104
T1 sequence (P09871 16-688): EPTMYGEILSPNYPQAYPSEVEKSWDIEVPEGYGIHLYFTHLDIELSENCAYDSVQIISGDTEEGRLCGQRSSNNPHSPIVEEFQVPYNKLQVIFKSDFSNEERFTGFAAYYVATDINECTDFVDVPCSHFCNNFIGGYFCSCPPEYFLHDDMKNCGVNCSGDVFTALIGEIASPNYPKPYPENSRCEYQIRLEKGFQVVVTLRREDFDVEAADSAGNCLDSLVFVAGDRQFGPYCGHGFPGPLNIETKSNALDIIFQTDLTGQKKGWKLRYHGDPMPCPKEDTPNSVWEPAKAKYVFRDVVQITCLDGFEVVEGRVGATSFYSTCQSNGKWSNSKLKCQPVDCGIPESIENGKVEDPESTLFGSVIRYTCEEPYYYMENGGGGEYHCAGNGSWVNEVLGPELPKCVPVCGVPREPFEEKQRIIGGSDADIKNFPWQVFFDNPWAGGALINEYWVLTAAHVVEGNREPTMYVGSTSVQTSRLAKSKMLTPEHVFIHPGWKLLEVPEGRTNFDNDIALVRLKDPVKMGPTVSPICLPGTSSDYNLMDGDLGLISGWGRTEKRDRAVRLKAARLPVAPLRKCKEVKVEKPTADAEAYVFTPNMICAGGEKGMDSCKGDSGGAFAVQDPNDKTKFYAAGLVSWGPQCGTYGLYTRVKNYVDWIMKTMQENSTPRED
Assay: recombinant C1s enzymatic assay (YLGR-Rh110-dPro substrate hydrolysis, fluorescence)
Format: biochemical
Conditions: recombinant human C1s 2.5 nM, substrate YLGR-Rh110-dPro 20 μM, 15 min pre-incubation, 60 min RT; read-out: rec. hC11s pIC50 (converted)
Experimental: Compound testing in the purified or recombinant C1s enzymatic assay C1s is a serine protease; its enzymatic activity is measured in vitro by the hydrolysis of the synthetic substrate YLGR-Rh110-dPro (Kerr F K, O'Brien G, Quinsey N S, Whisstock J C, Boyd S, de la Banda M G, Kaiserman D, Matthews A Y, Bird P I, Pike R N. Elucidation of the substrate specificity of the Cis protease of the classical complement pathway. J. Biol. Chem. (2005) 280, 39510-39514). The enzyme cleaves the substrate with the release of Rh110 which is highly fluorescent. Cis inhibitors prevent the hydrolysis of the substrate thus resulting in a decrease of the signal.
The recombinant C1s enzymatic assay is performed using the human C1s protein (R&D Systems, 2060-SE or Complement Technologies, A104). The assay buffer composition is: 50 mM HEPES pH 7.5 (Sigma, H3375), 150 mM NaCl (Sigma, S7653), 0.2% PEG 8000 (VWR, AA43443-22), 0.01% Pluronic F127 (Sigma, P2243). On the day of the experiment 0.1 mg/mL BSA (Sigma, B4287) is added fresh to the buffer. The test item stock solutions are serially diluted 1:3 or 1:4 or 1:5 with DMSO, 11-point curves, in a 384-well compound plate. Nafamostat concentration curve is always included in the assay plate as a reference control.
The assay plate is prepared by dispensing 0.25 μL from compound plate into a 384-well black assay plate (assay plate, Greiner Fluotrac 200, 781076, VWR 736-0140). The high controls are prepared dispensing in 0.25 μL DMSO in column 23, rows AH or AP and low controls with 0.25 μL of 0.1 μM Nafamostat. Cis solution is prepared as 2× of the 2.5 nM final assay concentration. The YLGR-Rh110-dPro substrate is prepared as 2× of the final assay concentration of 20 μM. 5 μL/well of 2× enzyme solution is dispensed and pre-incubated for 15 min with the compounds. The enzymatic reaction is the started with 5 μL/well of the 2× substrate solution. The plate is incubated for 60 min RT in the dark and fluorescence is measured (ex 485/em 535 nm) using an Envision (PerkinElmer) or an equivalent instrument.

| IC50 [nM] | SMILES |
| --- | --- |
| 0.977 | COc1cc(-n2cc(C(F)F)cn2)c(-c2ccc3c(N)cnnc3c2)cc1B(O)O [Example 29, [5-(4-aminocinnolin-7-yl)-4-[4-(difluoromethyl)-1H-pyrazol-1-yl]-2-methoxyphenyl]boronic acid formic acid salt] |
| 2.24 | COc1cc(B(O)O)cc(-c2ccc3c(N)cnnc3c2)c1-n1cc(C(F)F)cn1 [Example 30, [3-(4-aminocinnolin-7-yl)-4-[4-(difluoromethyl)-1H-pyrazol-1-yl]-5-methoxyphenyl]boronic acid formic acid salt] |
| 1.05 | COc1cc(-c2nc[nH]n2)c(-c2ccc3c(N)cnnc3c2)cc1B(O)O [Example 31, [5-(4-aminocinnolin-7-yl)-2-methoxy-4-(1H-1,2,4-triazol-3-yl)phenyl]boronic acid] |
| 0.832 | COc1cc(-c2ncco2)c(-c2ccc3c(N)cnnc3c2)cc1B(O)O [Example 32, [5-(4-aminocinnolin-7-yl)-2-methoxy-4-(1,3-oxazol-2-yl)phenyl]boronic acid formic acid salt] |
| 1.07 | COc1cc(-n2nccn2)c(-c2ccc3c(N)cnnc3c2)cc1B(O)O [Example 33, [5-(4-aminocinnolin-7-yl)-2-methoxy-4-(2H-1,2,3-triazol-2-yl)phenyl]boronic acid] |
| 1.29 | COc1cc(-c2cc[nH]n2)c(-c2ccc3c(N)cnnc3c2)cc1B(O)O [Example 36, [5-(4-aminocinnolin-7-yl)-2-methoxy-4-(1H-pyrazol-3-yl)phenyl]boronic acid formic acid salt] |
| 0.912 | COc1cnn(-c2cc(OC)c(B(O)O)cc2-c2ccc3c(N)cnnc3c2)c1 [Example 37, [5-(4-aminocinnolin-7-yl)-2-methoxy-4-(4-methoxypyrazol-1-yl)phenyl]boronic acid formic acid salt] |
| 1.02 | COc1cc(-c2nccs2)c(-c2ccc3c(N)cnnc3c2)cc1B(O)O [Example 38, [5-(4-aminocinnolin-7-yl)-2-methoxy-4-thiazol-2-yl-phenyl]boronic acid formic acid salt] |
| 2.69 | CC(C)Oc1cc(-n2cccn2)c(-c2ccc3c(N)cnnc3c2)cc1B(O)O [Example 39, [5-(4-aminocinnolin-7-yl)-2-propan-2-yloxy-4-pyrazol-1-ylphenyl]boronic acid formic acid salt] |
| 1.58 | COc1cc(-n2cc(F)cn2)c(-c2ccc3c(N)cnnc3c2)cc1B(O)O [Example 40, [5-(4-aminocinnolin-7-yl)-4-(4-fluoropyrazol-1-yl)-2-methoxyphenyl]boronic acid] |
| 24.5 | Cc1cc(-c2cc[nH]n2)c(-c2ccc3c(N)cnnc3c2)cc1B(O)O [Example 41, [5-(4-aminocinnolin-7-yl)-2-methyl-4-(1H-pyrazol-3-yl)phenyl]boronic acid] |
| 2.04 | Cc1cc(-c2ncco2)c(-c2ccc3c(N)cnnc3c2)cc1B(O)O [Example 42, [5-(4-aminocinnolin-7-yl)-2-methyl-4-oxazol-2-yl-phenyl]boronic acid formic acid salt] |
| 5.5 | COc1cc(-c2c[nH]cn2)c(-c2ccc3c(N)cnnc3c2)cc1B(O)O [Example 45, [5-(4-aminocinnolin-7-yl)-4-(1H-imidazol-4-yl)-2-methoxyphenyl]boronic acid] |
| 3.89 | COc1cc(-c2ncc[nH]2)c(-c2ccc3c(N)cnnc3c2)cc1B(O)O [Example 46, [5-(4-aminocinnolin-7-yl)-4-(1H-imidazol-2-yl)-2-methoxy-phenyl]boronic acid] |
| 1.7 | COc1cc(-n2cccn2)c(-c2ccc3c(N)nnc(C)c3c2)cc1B(O)O [Example 47, [5-(1-amino-4-methyl-phthalazin-6-yl)-2-methoxy-4-pyrazol-1-yl-phenyl]boronic acid] |
| 3.89 | COc1cc(-n2cccn2)c(-c2ccc3c(N)nccc3c2)cc1B(O)O [Example 48, [5-(1-amino-6-isoquinolyl)-2-methoxy-4-pyrazol-1-yl-phenyl]boronic acid formic acid salt] |
| 1.17 | COc1cc(-c2ncc(C)s2)c(-c2ccc3c(N)cnnc3c2)cc1B(O)O [Example 50, [5-(4-aminocinnolin-7-yl)-2-Methoxy-4-(5-methylthiazol-2-yl)phenyl]boronic acid formic acid salt] |
| 9.55 | Cc1cc(-c2nccs2)c(-c2ccc3c(N)cnnc3c2)cc1B(O)O [Example 53, [5-(4-aminocinnolin-7-yl)-2-methyl-4-thiazol-2-yl-phenyl]boronic acid formic acid salt] |
| 6.31 | COc1cc(-c2cn[nH]c2)c(-c2ccc3c(N)cnnc3c2)cc1B(O)O [Example 54, [5-(4-aminocinnolin-7-yl)-2-methoxy-4-(1H-pyrazol-4-yl)phenyl]boronic acid] |
| 2 | COc1cc(-n2cc(N3CCOCC3)cn2)c(-c2ccc3c(N)cnnc3c2)cc1B(O)O [Example 58, [5-(4-aminocinnolin-7-yl)-2-methoxy-4-(4-morpholinopyrazol-1-yl)phenyl]boronic acid formic acid salt] |
| 15.5 | Nc1cnnc2cc(-c3cc(B(O)O)ccc3-c3ccccn3)ccc12 [Example 63, [3-(4-aminocinnolin-7-yl)-4-(2-pyridyl)phenyl]boronic acid formic acid salt] |
| 12.3 | Nc1cnnc2cc(-c3cc(B(O)O)c(Oc4ccccc4)cc3-n3cccn3)ccc12 [Example 64, [5-(4-aminocinnolin-7-yl)-2-phenoxy-4-pyrazol-1-yl-phenyl]boronic acid formic acid salt] |
| 2.4 | Nc1cnnc2cc(-c3cc(B(O)O)cc4c3-n3nccc3CCO4)ccc12 [Example 65, [[10-(4-aminocinnolin-7-yl)-4,5-dihydropyrazolo[5,1-d][1,5]benzoxazepin-8-yl]boronic acid formic acid salt] |
| 0.692 | COc1cnc(-c2cc(OC)c(B(O)O)cc2-c2ccc3c(N)cnnc3c2)s1 [Example 68, [5-(4-aminocinnolin-7-yl)-2-methoxy-4-(5-methoxy-1,3-thiazol-2-yl)phenyl]boronic acid formic acid salt] |
| 1.26 | Nc1cnnc2cc(-c3cc4c(cc3-n3cccn3)OCCOB4O)ccc12 [Example 70, 8-(4-aminocinnolin-7-yl)-7-(1H-pyrazol-1-yl)-3,4-dihydro-1H-2,5,1-benzodioxaborepin-1-ol] |
| 2.09 | CC1COB(O)c2cc(-c3ccc4c(N)cnnc4c3)c(-n3cccn3)cc2O1 (centres unmarked) [Example 71, 7-(1-hydroxy-4-methyl-7-pyrazol-1-yl-3,4-dihydro-2,5,1-benzodioxaborepin-8-yl)cinnolin-4-amine] |
| 1.12 | Nc1cnnc2cc(-c3cc4c(cc3-c3ncco3)OCCOB4O)ccc12 [Example 74, 7-(1-hydroxy-7-oxazol-2-yl-3,4-dihydro-2,5,1-benzodioxaborepin-8-yl)cinnolin-4-amine] |
| 0.977 | COc1cc(-c2ncc(F)s2)c(-c2ccc3c(N)cnnc3c2)cc1B(O)O [Example 75, [5-(4-aminocinnolin-7-yl)-4-(5-fluorothiazol-2-yl)-2-methoxy-phenyl]boronic acid] |

| SMILES | IC50 [nM] |
| --- | --- |
| Nc1cnnc2cc(-c3cc(B(O)O)c(OC4CC(F)(F)C4)cc3-n3cccn3)ccc12 [Example 34, [5-(4-aminocinnolin-7-yl)-2-(3,3-difluorocyclobutoxy)-4-(1H-pyrazol-1-yl)phenyl]boronic acid formic acid salt] | 11.5 |
